Ends that are not written are not given here. * marks the point of attachment. Palmitoyl = CCCCCCCCCCCCCCCC(=O)*
System: nasolabial and glabellar wrinkles
Assay: Assessment of clinical efficacy: topical facial treatment for 28 days, wrinkle evaluation with Bio3D Structured-light Scanner
Assay type: in vivo, human
Conditions: Day 28 vs Day 0, topical formulation containing peptide at 500 ppm, 10 volunteers per group
Method: Two groups of 10 volunteers underwent 28 days of topical treatment with the peptides SEQ NO ID 1 (Pro-Trp-Lys-Trp) or SEQ NO ID 2 (Pal-Pro-Thr-Lys-Trp) in the facial region. Nasolabial and glabellar lines were evaluated on Day 0 (before) and Day 28 (after 4 weeks of treatment) using Bio3D Structured-light Scanner. For wrinkle evaluation, images of the different areas were taken and processed through specific software. Three parameters (total area, length and depth of wrinkles) were obtained for each of the areas in each of the volunteers.

| Substance | Decreased wrinkle intensity (D 28/D 0): Wrinkle area | Decreased wrinkle intensity (D 28/D 0): Wrinkle depth | Decreased wrinkle intensity (D 28/D 0): Wrinkle length |
| --- | --- | --- | --- |
| Pal-Pro-Thr-Lys-Trp (Palmitoyl-PTKW) [SEQ NO ID 2, N-palmitoylated peptide] | −7.81% | −6.59% | −11.76% |
| Pro-Trp-Lys-Trp (PWKW) [SEQ NO ID 1] | −10.92% | −9.23% | −14.97% |

From patent publication US20260157950A1, “Compounds and Cosmetic, Dermocosmetic, Cosmeceutical or Pharmaceutical Compositions for Relaxing Muscles, Including the Skeletal Muscles of the Face, for Anti-Aging Cosmetic Action, for Reducing and/or Smoothing Expression Lines and Wrinkles and/or for Antiperspirant Action, Uses and Methods” (Chemyunion Ltda, priority 2022, published 2026)
